According to PMC11904701, “Isolation and Characterization of Secondary Metabolites from Endemic and Edible Polygonum sivasicum with In Vitro Antioxidant and Cytotoxic Activities” (ACS Omega, 2025):
Values after ≈ are worked out from the molar mass of the structure shown.

What was measured:
[1] = system: CCD-1079Sk (human normal skin fibroblast epithelial cells); test: MTT cell viability assay, CCD-1079Sk; format: cell-based; details: 24 h, mean ± SD (n = 3)
Procedure: (§1) The A549 (human lung carcinoma epithelial cells, ATCC, CCL-185), MCF-7 (human breast cancer cells, ATCC, HTB-22), and CCD-1079Sk (human normal skin fibroblast epithelial cells, ATCC, CRL-2097) cell lines were initially seeded into culture flasks and grown in DMEM supplemented with 10% FBS (Sigma-Aldrich, St Louis, MO), 1% penicillin/streptomycin (Thermo Fisher Scientific, Carlsbad, CA). The cell lines were maintained in a humidified atmosphere of 5% CO2 at a temperature of 37 °C. The culture medium was changed every two days until the cells reached 80% confluence.
(§2) 3-(4,5-dimethyl-2-thiazolyl)-2,5-diphenyl-2H-tetrazolium bromide (MTT) was used to assess the cytotoxicity of hyperoside, annphenone, daucosterol, and P. sivasicum methanol extract. Cells were grown in 96-well plates at a density of 5 × 10^3 cells per well. In total, 70 to 80% of confluent cells (after 24 h) were treated with different concentrations of compounds (prepared in a medium containing 1% DMSO) in the growth medium for 24 h. At the end of the incubation periods, MTT solution was added to the wells to give a final concentration of 0.5 mg/mL. The cells were then incubated at 37 °C for a further 3.5 h. To solubilize the formazan crystals, 100 μL of DMSO was added to each well. The optical density was read at 570 nm by using an ELISA microplate reader and directly correlated with the number of viable cells. For each concentration, the data for which the measurement was repeated at least three times were compared. The relative % cell viability and the IC50 value were determined by plotting the graph as a function of concentration. Untreated cells were considered as control, and medium without cells was considered as background control. To determine the cytotoxic effect of compounds on cell viability, cells that were not treated with compounds were considered 100% viable, and cell viability was calculated according to the following formula: % Cell Viability = Sample/Control × 100.
(§3) All data on bioactivity tests were averages of triplicate analyses. Activity assays were carried out at six concentrations, and the results are given as the IC50 values. The data were analyzed using One-way ANOVA followed by Tukey’s post hoc test. p < 0.05, p < 0.001 and p < 0.0001 were considered statistically significant. Data were recorded as mean ± SEM (standard error of the mean). Significant differences between means were determined by the one-way ANOVA, and p values < 0.05 were regarded as significant. IBM SPSS statistical software (Version: 28.0.0.0 (190)) and GraphPad Prism 10.2 were used for statistical analysis.

[2] = system: MCF-7 (human breast cancer cells); test: MTT cell viability assay, MCF-7; format: cell-based; details: 24 h; for IC50: Homo sapiens, MCF7, MTT, mean ± SD (n = 3); for selectivity index MCF-7: versus CCD-1079Sk
Procedure: as §1, §2, §3

[3] = set-up: method as in PMID 28856938; details: annphenone isolated from a Euphorbia species; cited from earlier work
[4] = system: MCF-7 cell line; set-up: method as in PMID 28856938; details: data not included in the cited paper; cited from earlier work
[5] = system: A549 cell line; set-up: method as in PMID 28856938; details: data not included in the cited paper; cited from earlier work
[6] = system: Hep-3B cell line; set-up: method as in PMID 28856938; details: data not included in the cited paper; cited from earlier work
[7] = system: U118 cell line; set-up: method as in PMID 28856938; details: data not included in the cited paper; cited from earlier work
[8] = system: U87 cell line; set-up: method as in PMID 28856938; details: data not included in the cited paper; cited from earlier work
[9] = system: HepG2 cells; set-up: method as in doi:10.14233/ajchem.2013.15043; details: cited from earlier work
[10] = system: V79–4 cells; set-up: method as in PMID 18550394; details: cited from earlier work
[11] = system: A549 (human lung carcinoma epithelial cells); test: MTT cell viability assay, A549; details: for IC50: Homo sapiens, A549, 24 h, read-out: IC50, 24 h, A549; for selectivity index A549: versus CCD-1079Sk, 24 h
[12] = ABTS cation radical assay; format: biochemical; details: mean ± SEM of three parallel measurements
Procedure: as §3, with “Significant differences between means were determined by the one-way ANOVA, and p values < 0.05 were regarded as significant.” left out

[13] = DPPH free radical scavenging assay; format: biochemical; details: mean ± SEM of three parallel measurements
Procedure: as §3, with “Significant differences between means were determined by the one-way ANOVA, and p values < 0.05 were regarded as significant.” left out

[14] = CUPRAC (Cupric Reducing Antioxidant Capacity) method; format: biochemical; details: A0.5 values, mean ± SEM of three parallel measurements
Procedure: as §3, with “Significant differences between means were determined by the one-way ANOVA, and p values < 0.05 were regarded as significant.” left out

[15] = β-carotene linoleic acid bleaching assay; format: biochemical; details: mean ± SEM of three parallel measurements
Procedure: as §3, with “Significant differences between means were determined by the one-way ANOVA, and p values < 0.05 were regarded as significant.” left out

[16] = system: MCF-7; set-up: method as in PMID 30160115; details: after 24 h; cited from earlier work
[17] = system: MDA-MB-231; set-up: method as in PMID 30160115; details: after 24 h; cited from earlier work
[18] = system: breast cancer tumor; set-up: method as in PMID 30160115; details: mice, dose-dependent; cited from earlier work

For COc1cc(O[C@@H]2O[C@H](CO)[C@@H](O)[C@H](O)[C@H]2O)cc(O)c1C(C)=O [Annphenone, 2,4-dihydroxy-6-methoxy-acetophenone 4-O-β-D-glucopyranoside], the IC50 [1] was 300 ± 50 µg/mL (≈ 871 µM), the IC50 [2] was 360 ± 20 µg/mL (≈ 1050 µM) and the “selectivity index MCF-7” value [2] was 0.83. The “DPPH scavenging IC50” value [3] was 23.23 ± 1.8 µg/mL, the “cytotoxicity against MCF-7” value [4] was “no cytotoxicity” and the “cytotoxicity against A549” value [5] was “no cytotoxicity”. The “cytotoxicity against Hep-3B” value [6] was “no cytotoxicity”, the “cytotoxicity against U118” value [7] was “no cytotoxicity” and the “cytotoxicity against U87” value [8] was “no cytotoxicity”. For the same compound, the “antiproliferative IC50 on HepG2 cells” value [9] was 2.0 µg/mL, the “cytoprotective effect against H2O2-induced apoptosis” value [10] was “confirmed” and the IC50 [11] was 250 ± 10 µg/mL (≈ 726 µM). The “selectivity index A549” value [11] was 1.20.
For O=c1c(O[C@@H]2O[C@H](CO)[C@H](O)[C@H](O)[C@H]2O)c(-c2ccc(O)c(O)c2)oc2cc(O)cc(O)c12 [Hyperoside, Quercetin-3-O-β-galactopyranoside], the IC50 [1] was 250 ± 40 µg/mL (≈ 538 µM), the IC50 [2] was 370 ± 20 µg/mL (≈ 797 µM) and the “selectivity index MCF-7” value [2] was 0.67. For the same compound, the IC50 [11] was 600 ± 70 µg/mL (≈ 1290 µM) and the “selectivity index A549” value [11] was 0.41.
For O=c1[nH]cc(F)c(=O)[nH]1 [5-fluorouracil, reference compound], the “antiproliferative IC50 on HepG2 cells” value [9] is listed as 0.33 µg/mL.
For COc1ccc(O)c(C(C)(C)C)c1 [BHA, Butylated hydroxy anisol], the “ABTS IC50” value [12] was 7.23 ± 0.01 µg/mL, the “DPPH IC50” value [13] was 28.59 ± 0.06 µg/mL and the “CUPRAC IC50 (A0.5: concentration of 0.500 Absorbance value)” value (“CUPRAC IC50” for short) [14] was 24.49 ± 0.19 µg/mL. The “β-carotene IC50” value [15] was 1.34 ± 0.04 µg/mL.
In the case of Cc1c(C)c2c(c(C)c1O)CC[C@@](C)(CCC[C@H](C)CCC[C@H](C)CCCC(C)C)O2 [α-Toc, Tocopherol], the “ABTS IC50” value [12] is reported as 27.70 ± 0.28 µg/mL, the “DPPH IC50” value [13] is reported as 36.35 ± 0.24 µg/mL and the “CUPRAC IC50” value [14] is reported as 134.53 ± 0.19 µg/mL.
With COc1cccc2c1C(=O)c1c(O)c3c(c(O)c1C2=O)C[C@@](O)(C(=O)CO)C[C@@H]3O[C@H]1C[C@H](N)[C@H](O)[C@H](C)O1 [Doxorubicin, reference compound] the IC50 [1] was 280 ± 10 µg/mL (≈ 515 µM), the IC50 [2] was 40 ± 10 µg/mL (≈ 73.6 µM) and the “selectivity index MCF-7” value [2] was 7.0. The IC50 [11] was 10 ± 10 µg/mL (≈ 18.4 µM) and the “selectivity index A549” value [11] was 28.0.
With Cc1cc(C(C)(C)C)c(O)c(C(C)(C)C)c1 [BHT, Butylated hydroxy toluene] the “ABTS IC50” value [12] was 21.67 ± 0.87 µg/mL and the “CUPRAC IC50” value [14] was 26.85 ± 1.50 µg/mL.
In the case of CC[C@H](CC[C@@H](C)[C@H]1CC[C@H]2[C@@H]3CC=C4C[C@@H](O[C@@H]5O[C@H](CO)[C@@H](O)[C@H](O)[C@H]5O)CC[C@]4(C)[C@H]3CC[C@]12C)C(C)C [Daucosterol, β-sitosterol-3-O-β-glucopyranoside], the IC50 [1] is reported as 260 ± 30 µg/mL (≈ 451 µM), the IC50 [2] is reported as 580 ± 20 µg/mL (≈ 1010 µM) and the “selectivity index MCF-7” value [2] is reported as 0.44. The IC50 [16] was 30.8 mM, the IC50 [17] was 49.8 mM and the tumor volume [18] was “decrease”. The tumor weight [18] was “decrease”, the IC50 [11] was 180 ± 20 µg/mL (≈ 312 µM) and the “selectivity index A549” value [11] was 1.44.
